In patent US20230095912A1, “Composition and Methods for Selective Degradation of Engineered Proteins” (Celgene Corporation, priority 2021, published 2023):

What was measured:
[1] = system: IKZF1 ZNF2_3 Q1F tagged CD19 CAR; test: Jurkat reporter assay (tdTomato), signaling of Q1F-tagged CAR after degradation; format: cell-based, human; conditions: 1 mM pre-treatment 12 hours, co-culture with CD19-expressing K562 8 hours
Method: A lentiviral vector encoding ZNF2_3 Q1F or Q1F/G6N tagged CD19 CAR was transduced into the reporter cell line. […] Levels of tdTomato in the form of the overall percent of positive cells (FIG. 12A), as well as mean fluorescence intensity (MFI, FIG. 12B) were assessed by flow cytometry. Degradation of CARs containing the ZNF2_3 Q1F degron decreased signaling by around 30% using 1 mM Compound C and by around 75% using Compound B; this relative difference correlates with the depth of degradation seen for each. Further, the reduction in activity depends upon having an intact G-motif, as the G6N mutation prevents inhibition.

Helios = molecular target: T1, Helios (Homo sapiens, UniProt Q96SW2+Q9UKS7); test: Helios HiBit degradation in Jurkat cells; format: cell-based
T1 construct: endogenous in cells; host or cells: Jurkat/Helios/HiBit cells (CRISPR/Cas9 knock-in)
Method: For Helios, a stable Jurkat cell line was engineered using CRISPR/Cas9 to insert an in-frame HiBit tag into the carboxy-terminal reading frame of the IKZF2 gene. Test compounds were transferred to 1536 well plates using an acoustic dispenser, and Jurkat/Helios/HiBit cells in DMEM/10% FCS were plated at 10,000 cells/well in a final volume of 5 ul. Cells were incubated at 37C, 95% RH for 18 hr. Luciferase activity was measured by adding 2 ul/well of Nano-Glo reagent (Promega), incubating at RT for 30 min, and reading luminescence on a microtiter plate reader.
All substrate degradation curves were processed and evaluated using ActivityBase (IDBS), a data analysis software package. Ymin is minimum percent protein remaining.

ePL-tagged Ikaros = molecular target: T2, ePL-tagged Ikaros (Homo sapiens, UniProt Q13422+Q96SW2); test: ePL-tagged substrate degradation in DF15 multiple myeloma cells; format: cell-based
T2 construct: expressed in transfected cells
Method: (§1) DF15 multiple myeloma cells stably expressing ePL-tagged Aiolos, Ikaros, or GSPT1, and MDS-L cells stably expressing ePL-tagged CK1a were generated via lentiviral infection with pLOC-ePL-Aiolos (or Ikaros, GSPT1, or CK1a). […] Compounds were dispensed by an acoustic dispenser (ATS acoustic transfer system from EDC Biosystems) into a 384-well plate in a 10-point dose response curve using 3-fold dilutions starting at 10 μM and going down to […]. Then, 25 μL of media (RPMI-1640+10% heat inactivated FBS+25 mM Hepes+1 mM Na pyruvate+1× NEAA+1×Pen Strep Glutamine) containing 5000 of DF15 or MSD-L cells was dispensed per well. Assay plates were incubated at 37° C. with 5% CO2 for 4 hours except 20 hours for GSPT1. After incubation, 25 μL of the InCELL Hunter detection reagent working solution (DiscoverX, catalogue no. 96-0002, Fremont, Calif.) was added to each well and incubated at room temperature for 60 min protected from light. After 60 min, luminescence was read on an Envision or PHERAstar luminescence reader.
(§2) To determine the EC50 value of a compound for the degradation of a given substrate (concentration of compound that achieves half the maximum degradation observed), a four-parameter logistic model (sigmoidal dose—response model) (FIT=(A+{(B−A)/1+[(C/x)D]})) where C is the inflection point (EC50), D is the […], and A and B are the low and high limits of the fit, respectively) was used. All substrate degradation curves were processed and evaluated using ActivityBase (IDBS), a data analysis software package. Ymin is minimum percent protein remaining.

ePL-tagged GSPT1 = molecular target: T3, ePL-tagged GSPT1 (Homo sapiens, UniProt P15170+Q96SW2); test: as above; format: cell-based
T3 construct: expressed in transfected cells
Method: as §1, §2

T3 sequence (P15170 whole entry): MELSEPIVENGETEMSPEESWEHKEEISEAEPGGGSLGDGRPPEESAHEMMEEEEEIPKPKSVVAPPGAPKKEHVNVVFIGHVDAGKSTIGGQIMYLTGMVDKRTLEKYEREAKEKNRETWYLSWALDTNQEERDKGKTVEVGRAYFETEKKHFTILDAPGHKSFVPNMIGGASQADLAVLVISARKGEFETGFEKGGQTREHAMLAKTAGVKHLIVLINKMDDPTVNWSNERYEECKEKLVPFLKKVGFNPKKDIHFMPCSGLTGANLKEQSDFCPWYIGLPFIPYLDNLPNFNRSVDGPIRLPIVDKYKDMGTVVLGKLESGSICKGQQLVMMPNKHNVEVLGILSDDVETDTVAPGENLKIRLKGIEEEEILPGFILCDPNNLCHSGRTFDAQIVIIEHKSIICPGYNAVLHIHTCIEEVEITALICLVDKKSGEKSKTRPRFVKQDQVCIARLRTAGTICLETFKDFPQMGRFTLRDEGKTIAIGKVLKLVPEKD
T3 sequence (Q96SW2 whole entry): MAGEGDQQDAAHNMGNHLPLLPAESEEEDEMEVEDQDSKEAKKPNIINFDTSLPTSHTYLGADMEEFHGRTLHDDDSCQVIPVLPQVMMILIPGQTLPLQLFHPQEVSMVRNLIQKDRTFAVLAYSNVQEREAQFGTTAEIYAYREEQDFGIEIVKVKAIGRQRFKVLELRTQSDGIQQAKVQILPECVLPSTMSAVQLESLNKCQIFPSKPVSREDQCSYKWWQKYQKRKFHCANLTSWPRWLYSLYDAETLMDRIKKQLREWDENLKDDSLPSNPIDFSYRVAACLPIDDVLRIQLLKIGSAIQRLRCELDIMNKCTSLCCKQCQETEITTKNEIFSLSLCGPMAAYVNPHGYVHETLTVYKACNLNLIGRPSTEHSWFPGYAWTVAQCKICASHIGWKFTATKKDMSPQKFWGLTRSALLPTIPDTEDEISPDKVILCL
T3 sequence (Q16531 whole entry partner): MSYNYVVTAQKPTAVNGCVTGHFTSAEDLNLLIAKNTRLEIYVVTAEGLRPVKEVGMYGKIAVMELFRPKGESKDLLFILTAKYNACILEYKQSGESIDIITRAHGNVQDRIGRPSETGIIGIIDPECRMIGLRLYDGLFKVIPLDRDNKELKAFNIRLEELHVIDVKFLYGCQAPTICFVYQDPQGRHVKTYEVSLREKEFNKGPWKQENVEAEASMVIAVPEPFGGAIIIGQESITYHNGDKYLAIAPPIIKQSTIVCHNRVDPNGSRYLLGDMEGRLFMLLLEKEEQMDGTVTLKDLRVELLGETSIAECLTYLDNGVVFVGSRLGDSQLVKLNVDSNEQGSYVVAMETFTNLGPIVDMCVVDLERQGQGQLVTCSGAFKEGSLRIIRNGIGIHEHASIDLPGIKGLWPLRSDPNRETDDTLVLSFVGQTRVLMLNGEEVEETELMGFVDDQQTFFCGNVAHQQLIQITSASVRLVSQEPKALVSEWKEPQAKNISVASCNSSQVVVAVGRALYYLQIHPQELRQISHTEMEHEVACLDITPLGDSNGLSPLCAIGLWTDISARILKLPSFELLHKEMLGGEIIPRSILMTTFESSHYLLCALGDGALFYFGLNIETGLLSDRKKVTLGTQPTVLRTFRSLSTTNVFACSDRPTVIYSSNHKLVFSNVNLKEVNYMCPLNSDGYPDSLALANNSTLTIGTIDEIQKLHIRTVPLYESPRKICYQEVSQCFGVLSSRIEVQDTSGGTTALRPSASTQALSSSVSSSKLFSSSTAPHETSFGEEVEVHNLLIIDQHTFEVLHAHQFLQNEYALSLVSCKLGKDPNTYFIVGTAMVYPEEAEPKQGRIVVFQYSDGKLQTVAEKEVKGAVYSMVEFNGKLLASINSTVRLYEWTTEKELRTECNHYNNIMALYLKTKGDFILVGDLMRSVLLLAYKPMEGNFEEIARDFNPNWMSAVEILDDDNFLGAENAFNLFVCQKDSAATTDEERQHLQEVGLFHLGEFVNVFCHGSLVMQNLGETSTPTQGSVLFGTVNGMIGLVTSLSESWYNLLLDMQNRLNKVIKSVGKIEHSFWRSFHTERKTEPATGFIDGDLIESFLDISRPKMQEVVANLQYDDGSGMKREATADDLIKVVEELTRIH
T2 sequence (Q13422 whole entry): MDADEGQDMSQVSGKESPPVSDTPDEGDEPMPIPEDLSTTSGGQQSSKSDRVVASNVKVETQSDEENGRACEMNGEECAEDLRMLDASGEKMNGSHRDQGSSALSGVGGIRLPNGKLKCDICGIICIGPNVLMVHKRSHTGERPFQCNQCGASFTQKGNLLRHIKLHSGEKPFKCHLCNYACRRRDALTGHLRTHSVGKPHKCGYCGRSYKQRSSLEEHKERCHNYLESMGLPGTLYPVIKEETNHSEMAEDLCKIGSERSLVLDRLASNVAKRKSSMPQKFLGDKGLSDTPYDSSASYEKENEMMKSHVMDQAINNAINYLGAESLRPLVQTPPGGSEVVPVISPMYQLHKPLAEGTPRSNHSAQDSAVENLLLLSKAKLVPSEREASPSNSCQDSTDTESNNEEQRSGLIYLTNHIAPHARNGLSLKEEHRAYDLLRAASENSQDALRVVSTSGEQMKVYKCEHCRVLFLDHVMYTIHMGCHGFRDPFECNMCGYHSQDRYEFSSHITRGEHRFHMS
T2 sequence (Q96SW2 whole entry): as the sequence (Q96SW2 whole entry) above
T2 sequence (Q16531 whole entry partner): as the sequence (Q16531 whole entry partner) above
T1 sequence (Q9UKS7 whole entry): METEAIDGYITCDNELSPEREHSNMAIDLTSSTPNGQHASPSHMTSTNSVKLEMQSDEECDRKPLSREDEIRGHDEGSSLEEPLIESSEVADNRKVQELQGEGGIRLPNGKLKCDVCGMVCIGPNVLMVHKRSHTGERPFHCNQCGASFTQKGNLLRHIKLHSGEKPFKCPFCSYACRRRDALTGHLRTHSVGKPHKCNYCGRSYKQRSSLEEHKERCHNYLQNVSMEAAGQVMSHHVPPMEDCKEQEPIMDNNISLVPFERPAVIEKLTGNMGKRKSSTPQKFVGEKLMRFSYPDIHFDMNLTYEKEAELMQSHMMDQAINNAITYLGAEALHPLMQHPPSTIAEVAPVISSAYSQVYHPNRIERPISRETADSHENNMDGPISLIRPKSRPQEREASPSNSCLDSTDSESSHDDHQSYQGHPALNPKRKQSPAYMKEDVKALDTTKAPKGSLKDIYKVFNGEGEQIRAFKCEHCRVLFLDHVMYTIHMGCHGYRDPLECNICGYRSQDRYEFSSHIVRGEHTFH
T1 sequence (Q96SW2 whole entry): as the sequence (Q96SW2 whole entry) above
T1 sequence (Q16531 whole entry partner): as the sequence (Q16531 whole entry partner) above

Ymin (%) (Helios): 86% | DC50 (Helios; Helios, Jurkat/Helios/HiBit cells, 18 hr, read-out: EC50 (the source's name)): > 10 µM | Ymin (%) (ePL-tagged Ikaros): 92% | DC50 (ePL-tagged Ikaros; Ikaros, DF15 cells, 4 hours, read-out: EC50 (the source's name)): > 10 µM | Ymin (%) (ePL-tagged GSPT1): 89% | DC50 (ePL-tagged GSPT1; GSPT1, DF15 cells, 20 hours, read-out: EC50 (the source's name)): > 10 µM
SMILES: Cc1ncccc1N1CCN(Cc2ccc3c(c2)CN(C2CCC(=O)NC2=O)C3=O)CC1 (stereo not shown) [Compound C, 3-(5-((4-(2-methylpyridin-3-yl)piperazin-1-yl)methyl)-1-oxoisoindolin-2-yl)piperidine-2,6-dione]
decrease of signaling (tdTomato reporter) [1]: around 30%
